{"source": "ChEMBL document CHEMBL3616410", "about": "“Linked pyridinyl-thiadiazoles: Design and synthesis as potential candidate for treatment of XDR and MDR tuberculosis” (Eur J Med Chem, 2015)", "assay_type_in_all_cases": "functional", "key": {"[1]": {"test_system": "Mycobacterium tuberculosis", "test": "Antimycobacterial activity against multi-drug resistant Mycobacterium tuberculosis TN1314 after 5 days by spectrophotometry", "conditions": "TN1314, 120 h"}, "[2]": {"test_system": "Mycobacterium tuberculosis", "test": "Antimycobacterial activity against multi-drug resistant Mycobacterium tuberculosis TN715 after 5 days by spectrophotometry", "conditions": "TN715, 120 h"}, "[3]": {"test_system": "Mycobacterium tuberculosis", "test": "Antimycobacterial activity against multi-drug resistant Mycobacterium tuberculosis TN1195 after 5 days by spectrophotometry", "conditions": "TN1195, 120 h"}, "[4]": {"test_system": "Mycobacterium tuberculosis", "test": "Antimycobacterial activity against multi-drug resistant Mycobacterium tuberculosis TN772 after 5 days by spectrophotometry", "conditions": "TN772, 120 h"}, "[5]": {"test_system": "Mycobacterium tuberculosis", "test": "Antimycobacterial activity against multi-drug resistant Mycobacterium tuberculosis TN768 after 5 days by spectrophotometry", "conditions": "TN768, 120 h"}, "[6]": {"test_system": "Mycobacterium tuberculosis", "test": "Antimycobacterial activity against multi-drug resistant Mycobacterium tuberculosis TN1618 after 5 days by spectrophotometry", "conditions": "TN1618, 120 h"}, "[7]": {"test_system": "Mycobacterium tuberculosis", "test": "Antimycobacterial activity against multi-drug resistant Mycobacterium tuberculosis TN565 after 5 days by spectrophotometry", "conditions": "TN565, 120 h"}, "[8]": {"test_system": "Mycobacterium tuberculosis", "test": "Antimycobacterial activity against multi-drug resistant Mycobacterium tuberculosis TN2557 after 5 days by spectrophotometry", "conditions": "TN2557, 120 h"}, "[9]": {"test_system": "Mycobacterium tuberculosis", "test": "Antimycobacterial activity against multi-drug resistant Mycobacterium tuberculosis TN576 after 5 days by spectrophotometry", "conditions": "TN576, 120 h"}, "[10]": {"test_system": "Mycobacterium tuberculosis", "test": "Antimycobacterial activity against multi-drug resistant Mycobacterium tuberculosis TN702 after 5 days by spectrophotometry", "conditions": "TN702, 120 h"}, "[11]": {"test_system": "Mycobacterium tuberculosis", "test": "Antimycobacterial activity against multi-drug resistant Mycobacterium tuberculosis TN1811 after 5 days by spectrophotometry", "conditions": "TN1811, 120 h"}}}
{"smiles": "O=C(CCSc1nnc(-c2ccncc2)s1)Nc1ccc(Cl)cc1", "values": [{"measurement": "MIC", "setting": "[1]", "value": 0.03, "unit": "mg/L"}, {"measurement": "MIC", "setting": "[2]", "value": 0.06, "unit": "mg/L"}, {"measurement": "MIC", "setting": "[3]", "value": 0.25, "unit": "mg/L"}, {"measurement": "MIC", "setting": "[4]", "value": 0.03, "unit": "mg/L"}, {"measurement": "MIC", "setting": "[5]", "value": 0.06, "unit": "mg/L"}, {"measurement": "MIC", "setting": "[6]", "value": 0.06, "unit": "mg/L"}, {"measurement": "MIC", "setting": "[7]", "value": 0.06, "unit": "mg/L"}, {"measurement": "MIC", "setting": "[8]", "value": 0.13, "unit": "mg/L"}, {"measurement": "MIC", "setting": "[9]", "value": 0.06, "unit": "mg/L"}, {"measurement": "MIC", "setting": "[10]", "value": 0.25, "unit": "mg/L"}, {"measurement": "MIC", "setting": "[11]", "value": 0.03, "unit": "mg/L"}]}
